According to patent publication US20110033516A1, “METHODS AND COMPOSITIONS FOR BONE HEALING BY PERIOSTIN” (Medical University of South Carolina, priority 2009, published 2011):
Entries after “also recorded” stand apart in the source; their conditions may differ.

B1: TGFβ3: exogenous factor (transforming growth factor) tested in the 3D collagen gel migration assay (protein, UniProt P10600 301-412, looked up)
Transforming growth factor …: ALDTNYCFRNLEENCCVRPLYIDFRQDLGWKWVHEPKGYYANFCSGPCPYLRSADTTHSTVLGLYNTLNPEASASPCCVPQDLEPLTILYYVGRTPKVEQLSNMVVKSCKCS
B2: periostin: Full length recombinant mouse periostin (a.k.a. OSF-2) purchased from R&D systems; secreted 90 kDa matricellular protein (protein, UniProt Q62009 1-838, looked up)
chain: MVPLLPLYALLLLFLCDINPANANSYYDKVLAHSRIRGRDQGPNVCALQQILGTKKKYFSSCKNWYQGAICGKKTTVLYECCPGYMRMEGMKGCPAVMPIDHVYGTLGIVGATTTQHYSDVSKLREEIEGKGSYTYFAPSNEAWENLDSDIRRGLENNVNVELLNALHSHMVNKRMLTKDLKHGMVIPSMYNNLGLFINHYPNGVVTVNCARVIHGNQIATNGVVHVIDRVLTQIGTSIQDFLEAEDDLSSFRAAAITSDLLESLGRDGHFTLFAPTNEAFEKLPRGVLERIMGDKVASEALMKYHILNTLQCSEAITGGAVFETMEGNTIEIGCEGDSISINGIKMVNKKDIVTKNGVIHLIDEVLIPDSAKQVIELAGKQQTTFTDLVAQLGLASSLKPDGEYTLLAPVNNAFSDDTLSMDQRLLKLILQNHILKVKVGLSDLYNGQILETIGGKQLRVFVYRTAICIENSCMVRGSKQGRNGAIHIFREIIQPAEKSLHDKLRQDKRFSIFLSLLEAADLKDLLTQPGDWTLFAPTNDAFKGMTSEERELLIGDKNALQNIILYHLTPGVYIGKGFEPGVTNILKTTQGSKIYLKGVNETLLVNELKSKESDIMTTNGVIHVVDKLLYPADIPVGNDQLLELLNKLIKYIQIKFVRGSTFKEIPMTVYTTKIITKVVEPKIKVIQGSLQPIIKTEGPAMTKIQIEGDPDFRLIKEGETVTEVIHGEPVIKKYTKIIDGVPVEITEKQTREERIITGPEIKYTRISTGGGETGETLQKFLQKEVSKVTKFIEGGDGHLFEDEEIKRLLQGDTPAKKIPANKRVQGPRRRSREGRSQ
modifications: full-length
notes: Full length recombinant mouse periostin (a.k.a. OSF-2) purchased from R&D systems; secreted 90 kDa matricellular protein

Tests used:
ROS cell line = assay: Cell adhesion assay, ROS cell line; type: cell-based, rat; details: assayed in triplicate, 1% BSA negative control
Procedure: FIGS. 16A-B Cell adhesion assays. (A) Each of the 55 peptides (20 mers) of periostin was assayed in triplicate by a cell adhesion assay using the ROS cell line. Collagen I and poly-L-lysine were used as positive controls, whereas 1% BSA coated wells were negative controls for non-specific binding. […] These subtle differences may be attributed to different integrin profiles of the two cell types.
The 55 peptides in Table 1 have been studied in a cell adhesion assay using the ROS cell line.
These assays will be performed as described. Briefly, titrated amounts of purified matrix protein (or peptides or fragments) ranging from 10 ng/ml to 100 μg/ml will be used to coat the wells of a 96-well dish. Poly-L-lysine (1.5 μg/ml) and 1% BSA will be used as positive and negative controls for adhesion, respectively. The wells are blocked with 1% BSA to coat any of the charged plastic surface not coated by the substrates. Finally the cells are allowed to adhere to the substrates at 37° C. for 1-2 hours depending on cell type. The cells are then gently washed to remove those that are not adherent and retain those that are adherent. Then the cells remaining are exposed to 4% PFA to fix them and they are subsequently stained with 0.25% crystal violet for 30 min. Plates are washed and air-dried. At this point the cells can be visualized and images digitally captured. The amount of stain on the cells is solubilized by 2% sodium deoxycholate for 10 min. and absorbance is measured at 540 nm wavelength. This gives quantitative data directly related to the number of adherent cells. Another assessment can be done by digitally capturing the cells in each well and analyzing their spreading by morphometric analysis.

primary fibroblasts = assay: 3D collagen gel migration assay with hanging drop aggregates; type: cell-based; details: aggregates of 50,000 cells/20 μl on collagen I hydrogels (1.5 mg/ml), exogenous factors
Text: FIG. 11 Periostin promotes migration of primary fibroblasts in 3D collagen gel assays. […] Pictures above the graph lines show representative images of the stimulated cultures with the cell migratory boundaries outlined.
The 3-D migration and invasion assay will use the same cells but aggregate them using a hanging drop method overnight. […] The number of cells that have migrated out from the aggregate and the distance migrated on the top of the gel are the first order parameters of migration.

fibroblasts = assay: Collagen deposition by fibroblasts after periostin exposure; type: cell-based; details: following periostin exposure/incubation
[1] = system: Mesenchyme from periostin null mice; assay: Hanging drop culture of periostin null mesenchyme, collagen expression by immunoblotting; type: cell-based, mouse; details: purified periostin protein 10 μg/ml in culture medium, 7 days
Procedure: FIGS. 3A-B Periostin regulates collagen synthesis. Mesenchyme from periostin null mice was placed in hanging drop cultures and incubated with either purified periostin protein (10 μg/ml) or PBS. Mesenchyme from wild-type mice was used as control tissue. After 7 days, tissues were harvested and analyzed for periostin and collagen expression by immunoblotting. […] Actin is used for protein normalization. (B) Graphical representation of Western analyses presented in panel A obtained from densitometric analyses using NIH image software. Values obtained were compared against wild-type values (baseline) and represented as relative percent change. * denotes p<0.05.
Studies were carried out to examine the affect of periostin on fibroblast differentiation. Through these studies, it was ascertained that periostin was a crucial regulator of collagen I synthesis and maturation (fibrillogenesis) and promoted fibroblast differentiation (FIGS. 3A-B). […] Within the bone, expression of these matrix components was seen primarily in the periosteal cells. To ascertain the functional significance of periostin on bone growth, gene targeted mice were generated. These mice are viable and able to reproduce. However, significant defects have been observed in the material properties of various connective tissues. […]

[2] = system: fibula osteotomy in the periostin null mouse; assay: Fibula osteotomy model of bone fracture healing, X-ray analysis; type: in vivo; details: three weeks after fibula osteotomy, hydrogel delivery at the break point
Procedure: FIGS. 8A-C Periostin KO mice have defects in bone regeneration. X-ray analyses of bone healing three weeks after fibula osteotomies. […] (B,C) Fibula osteotomies were performed in the periostin null background and analyzed by X-ray three weeks later. In the absence of periostin there is no apparent callus formed and no fibula fusion (C).
To examine the role of periostin as a mediator of bone healing following injury, a novel in vivo murine fibula osteotomy model was developed (FIGS. 6A-B). The generation of this model system in the mouse has significant advantages over the more standard tibia and femur bone break models. Currently, the main disadvantage of the tibia and femur models is their necessity for an intermedullary stabilizer (i.e., metal rods) due to these bones being weight bearing. These rods make various analyses such microCT, MTS and histological examination either exceedingly difficult or totally impossible. Because the fibula is a non-weight bearing bone, intermedullary stabilization is not required. As such, analyses such as microCT, MTS and histology are more easily and reproducibly performed in the fibula osteotomy model. […]

rat osteoblast cells = assay: Standard wounding / scratch migration assay; type: cell-based; details: dishes coated with plastic, collagen, or collagen plus titrating amounts of periostin; BMP-2 titrated; up to 48 hours
Procedure: Tissue culture dishes were coated with either collagen, or collagen with titrating amounts of periostin. Cells were plated and allowed to adhere for 24 hours. A standard “wounding” or “scratch assay” was performed and measurements of cell migration into the scratch area were obtained.
The ability of periostin to promote migration of osteoblast cells in culture was ascertained utilizing a standard “wounding” assay. For this, a monolayer of rat osteoblast cells was plated on either plastic, collagen or collagen plus titrating amounts of periostin. A small scratch was made (with a P200 tip) through the middle of the monolayer and the cells were allowed to migrate into the “wounded” area for up to 48 hours.

| Molecule | cell adhesion (binding) to peptide (ROS cell line) | other results |
| --- | --- | --- |
| DQRLLKLILQNHILKVKVGL (listed as Mus musculus) [Peptide 28, murine periostin peptide] | significant binding | – |
| HGMVIPSMYNNLGLFINHYP (listed as Mus musculus) [Peptide 12, murine periostin peptide] | significant binding | – |
| HSHMVNKRMLTKDLKHGMVI (listed as Mus musculus) [Peptide 11, murine periostin peptide] | significant binding | – |
| HSRIRGRDQGPNVCALQQIL (listed as Mus musculus) [Peptide 2, murine periostin peptide] | significant binding | – |
| IGCEGDSISINGIKMVNKKD (listed as Mus musculus) [Peptide 22, murine periostin peptide] | significant binding | – |
| RGLENNVNVELLNALHSHMV (listed as Mus musculus) [Peptide 10, murine periostin peptide] | significant binding | – |
| TIGGKQLRVFVYRTAICIEN (listed as Mus musculus) [Peptide 30, murine periostin peptide] | significant binding | – |
| B1 | – | fold-change in area of migration (primary fibroblasts): promoted migration |
| B2 | – | collagen deposition by fibroblasts (fibroblasts): increased in a dose-dependent manner; fold-change in area of migration (primary fibroblasts): highest degree of migration; expression of collagen Ia1 and Ia2 [1]: induces expression of collagen Ia1 and Ia2; bone healing (callus formation, fibula fusion) by X-ray [2]: “rescued” the null phenotype; also recorded: pronounced healing is evident; cell migration into the scratch area (rat osteoblast cells): highest degree of migration; also recorded: most potent stimulation of migration |
